The results in this text go back to patent US20240083857A1, “2-Methyl-Quinazolines” (Bayer Pharma Aktiengesellschaft, priority 2017, published 2024).

pIC50: −log10 of the molar value. Where two headings read alike, the source gives them in different places.

Experiment [1] addresses Epidermal Growth Factor Receptor (EGFR) (Homo sapiens (Human), UniProt P00533). The experiment is described as follows: EGFR kinase assay (TR-FRET). Format: biochemical. As to conditions: for pIC50: E-notation values, unit inferred. A digest of the protocol:
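Read-out is the 665/620 nm HTRF ratio, from a Tb-cryptate anti-phosphotyrosine antibody and streptavidin-XL665 bound to phosphorylated biotin-peptide substrate. The enzyme, A431-derived EGFR (~3 U/ml), was given 15 min compound pre-binding at 22° C in Hepes pH 7.0 with Mg2+/Mn2+ before reaction.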

Experiment [2] has as its target human SOS1 (nucleotide exchange of K-Ras^G12C) (Homo sapiens, UniProt Q07889). The experiment is described as follows: Biochemical assay 2: K-Ras^G12C activation assay by hSOS1 at high GTP concentration (HTRF). As to conditions: for pIC50: E-notation values, unit inferred, 50 μM GTP, read-out: Assay 2 (KRAS-Activation, high GTP) IC50. (Time-resolved FRET reads energy transfer from a long-lived donor to a nearby acceptor.)

Chain of Epidermal Growth Factor Receptor (EGFR) (P00533 25-1210): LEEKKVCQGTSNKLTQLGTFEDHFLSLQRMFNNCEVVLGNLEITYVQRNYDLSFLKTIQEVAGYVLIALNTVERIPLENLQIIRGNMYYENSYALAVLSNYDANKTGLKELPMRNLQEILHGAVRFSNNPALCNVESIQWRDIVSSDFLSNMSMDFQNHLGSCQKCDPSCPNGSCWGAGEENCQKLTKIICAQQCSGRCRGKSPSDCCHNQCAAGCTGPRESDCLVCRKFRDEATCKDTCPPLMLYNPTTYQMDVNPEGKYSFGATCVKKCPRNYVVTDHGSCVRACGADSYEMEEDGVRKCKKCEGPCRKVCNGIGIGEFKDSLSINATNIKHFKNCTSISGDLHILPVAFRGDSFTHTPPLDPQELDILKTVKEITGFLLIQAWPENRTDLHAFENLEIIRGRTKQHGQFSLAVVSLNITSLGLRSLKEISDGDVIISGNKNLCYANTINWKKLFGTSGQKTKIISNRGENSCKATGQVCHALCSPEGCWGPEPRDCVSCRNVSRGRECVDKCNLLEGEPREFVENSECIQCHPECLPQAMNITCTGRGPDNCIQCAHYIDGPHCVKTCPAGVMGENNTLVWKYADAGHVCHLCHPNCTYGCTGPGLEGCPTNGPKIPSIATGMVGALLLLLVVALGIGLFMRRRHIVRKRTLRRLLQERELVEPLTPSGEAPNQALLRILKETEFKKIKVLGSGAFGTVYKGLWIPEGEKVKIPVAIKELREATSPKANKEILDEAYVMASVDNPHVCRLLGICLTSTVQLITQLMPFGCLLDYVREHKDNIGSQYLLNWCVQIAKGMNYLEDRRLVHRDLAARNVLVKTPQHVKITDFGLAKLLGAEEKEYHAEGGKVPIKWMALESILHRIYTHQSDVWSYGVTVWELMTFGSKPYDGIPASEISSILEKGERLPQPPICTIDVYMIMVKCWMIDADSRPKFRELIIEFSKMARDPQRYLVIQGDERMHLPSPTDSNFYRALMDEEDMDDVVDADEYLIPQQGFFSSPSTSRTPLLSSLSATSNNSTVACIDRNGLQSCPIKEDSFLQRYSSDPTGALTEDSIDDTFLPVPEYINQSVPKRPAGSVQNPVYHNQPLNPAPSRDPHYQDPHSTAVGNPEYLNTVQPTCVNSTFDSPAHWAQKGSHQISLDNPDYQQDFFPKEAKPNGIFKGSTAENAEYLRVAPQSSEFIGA

Broadly, the pIC50 is −log10 of the IC50, conventionally taken in molar units. Consider `COc1cc2nc(C)nc(NC(C)c3cc(Cl)c(-c4ccccc4CN)s3)c2cc1OC` (stereo not drawn) [Example 430, N-[1-{5-[2-(aminomethyl)phenyl]-4-chlorothiophen-2-yl}ethyl]-6,7-dimethoxy-2-methylquinazolin-4-amine], for which the pIC50 in experiment [1] (read-out: EGFR-assay IC50) is < 4.70; in experiment [2], 6.42.
On the same counts, the results for `COc1cc(C)c2nc(C)nc(N[C@H](C)c3cccc(Cl)c3)c2c1` [Example 396, N-[(1R)-1-(3-chlorophenyl)ethyl]-6-methoxy-2,8-dimethylquinazolin-4-amine] are < 4.70 and 5.94.
Regarding `COc1cc2nc(C)nc(NC(C)c3sc(-c4ccccc4CN)cc3Cl)c2cc1OC` (stereo not drawn) [Example 437, N-[1-{5-[2-(aminomethyl)phenyl]-3-chlorothiophen-2-yl}ethyl]-6,7-dimethoxy-2-methylquinazolin-4-amine], the results for the negative-log IC50 (pIC50) in experiment [1] (read-out: EGFR-assay IC50) and in experiment [2] were < 4.70 and 7.02, respectively.
For `Cc1nc(NC(C)c2ccc(-c3ccccc3CN(C)C)s2)c2cc(NS(C)(=O)=O)ccc2n1` (stereo not drawn) [Example 438, N-(4-{[1-(5-{2-[(dimethylamino)methyl]phenyl}thiophen-2-yl)ethyl]amino}-2-methylquinazolin-6-yl)methanesulfonamide], the results for the pIC50 in experiment [1] (read-out: EGFR-assay IC50) and in experiment [2] were < 4.70 and 7.18, respectively.
`Cc1nc(NC(C)c2ccc(Br)s2)c2cc(N3CCN(C)C(=O)C3)ccc2n1` (stereo not drawn) [Example 434, 4-(4-{[1-(5-bromothiophen-2-yl)ethyl]amino}-2-methylquinazolin-6-yl)-1-methylpiperazin-2-one]: the pIC50 in experiment [1] (read-out: EGFR-assay IC50) is 4.78; in experiment [2], 5.62.
Turning to `COc1cc2nc(C)nc(NC(C)c3ccc(-c4ccc(C)cc4CN(C)C)s3)c2cc1OC` (stereo not drawn) [Example 442, N-[1-(5-{2-[(dimethylamino)methyl]-4-methylphenyl}thiophen-2-yl)ethyl]-6,7-dimethoxy-2-methylquinazolin-4-amine], the results for the negative-log IC50 (pIC50) in experiment [1] (read-out: EGFR-assay IC50) and in experiment [2] were < 4.70 and 7.40, respectively.
On the same counts, the results for `COc1cc2nc(C)nc(NC(C)c3ccc(-c4ccccc4CN(C)C)s3)c2cc1OC` (single isomer, unassigned) [Example 391, N-[1-(5-{2-[(dimethylamino)methyl]phenyl}thiophen-2-yl)ethyl]-6,7-dimethoxy-2-methylquinazolin-4-amine] are < 4.70 and 7.44.
As to `COc1cc2nc(C)nc(NC(C)c3cc(C)c(-c4ccccc4CN(C)CCO)s3)c2cc1OC` (stereo not drawn) [Example 401, 2-{[2-(5-{1-[(6,7-dimethoxy-2-methylquinazolin-4-yl)amino]ethyl}-3-methyl-2-thienyl)benzyl](methyl)amino}ethanol], the figures for the pIC50 in experiment [1] (read-out: EGFR-assay IC50) and in experiment [2] were < 4.70 and 7.19, respectively.
On to `COc1cc2nc(C)nc(N[C@H](C)c3cccc(-c4ccnc(O)c4)c3)c2cc1OC` [Example 388, 4-(3-{(1R)-1-[(6,7-dimethoxy-2-methylquinazolin-4-yl)amino]ethyl}phenyl)pyridin-2-ol], for which the negative logarithm of the IC50 (pIC50) in experiment [1] (read-out: EGFR-assay IC50) was < 4.70; in experiment [2], 6.10.
In the case of `Cc1nc(N[C@H](C)c2cccc(Cl)c2)c2cc(C3CC3)ccc2n1` [Example 407, N-[(1R)-1-(3-chlorophenyl)ethyl]-6-cyclopropyl-2-methylquinazolin-4-amine], the pIC50 is < 4.70 in experiment [1] (read-out: EGFR-assay IC50) and 5.97 in experiment [2].
On to `COc1cc2nc(C)nc(NC(C)c3ccc(-c4cccc(Cl)c4CN)s3)c2cc1OC` (stereo not drawn) [Example 397, N-[1-{5-[2-(aminomethyl)-3-chlorophenyl]thiophen-2-yl}ethyl]-6,7-dimethoxy-2-methylquinazolin-4-amine], for which the negative logarithm of the IC50 (pIC50) in experiment [1] (read-out: EGFR-assay IC50) is < 4.70; in experiment [2] it was 6.68.
Consider `COC(=O)C(C)(C)c1ccccc1-c1ccc(C(C)Nc2nc(C)nc3cc(OC)c(OC)cc23)s1` (stereo not drawn) [Example 436, methyl 2-[2-(5-{1-[(6,7-dimethoxy-2-methylquinazolin-4-yl)amino]ethyl}thiophen-2-yl)phenyl]-2-methylpropanoate], for which the negative logarithm of the IC50 (pIC50) in experiment [1] (read-out: EGFR-assay IC50) is < 4.70; in experiment [2], 5.83.
In the case of `Cc1nc(NC(C)c2ccc(Br)s2)c2cc(N3CCN(Cc4ccccc4)C(=O)C3)ccc2n1` (stereo not drawn) [Example 441, 1-benzyl-4-(4-{[1-(5-bromothiophen-2-yl)ethyl]amino}-2-methylquinazolin-6-yl)piperazin-2-one], the negative-log IC50 (pIC50) was < 4.70 in experiment [1] (read-out: EGFR-assay IC50) and 5.40 in experiment [2].
As to `COc1cc2nc(C)nc(NC(C)c3ccc(-c4ccccc4C(C)(C)N)s3)c2cc1OC` (stereo not drawn) [Example 455, N-[1-{5-[2-(2-aminopropan-2-yl)phenyl]thiophen-2-yl}ethyl]-6,7-dimethoxy-2-methylquinazolin-4-amine], the pIC50 in experiment [1] (read-out: EGFR-assay IC50) is < 4.70; in experiment [2] it was 5.98.
As usually defined, the IC50 is the concentration at which inhibition is half-maximal. Regarding `COCC(=O)NCc1cc(F)ccc1-c1ccc(C(C)Nc2nc(C)nc3cc(OC)c(OC)cc23)s1` (stereo not drawn) [Example 383, N-[2-(5-{1-[(6,7-dimethoxy-2-methylquinazolin-4-yl)amino]ethyl}thiophen-2-yl)-5-fluorobenzyl]-2-methoxyacetamide], in experiment [1] (in μM, read-out: EGFR-assay IC50), the IC50 was > 20 µM. For the same compound, the pIC50 in experiment [2] is 5.44.
For `Cc1nc(NC(C)c2ccc(-c3ccccc3CN(C)C)s2)c2cc(N3CCC(N(C)C)C3)ccc2n1` (stereo not drawn) [Example 418, N-[1-(5-{2-[(dimethylamino)methyl]phenyl}thiophen-2-yl)ethyl]-6-[3-(dimethylamino)pyrrolidin-1-yl]-2-methylquinazolin-4-amine], the values for the pIC50 in experiment [1] (read-out: EGFR-assay IC50) and in experiment [2] were < 4.70 and 7.40, respectively.
As a reminder, the inhibition is the relative decrease from the control value, in per cent. With `COc1cc2nc(C)nc(NC(C)c3ccc(-c4ccccc4CNc4ccccc4)s3)c2cc1OC` (stereo not drawn) [Example 362, 6,7-dimethoxy-2-methyl-N-[1-(5-{2-[(phenylamino)methyl]phenyl}thiophen-2-yl)ethyl]quinazolin-4-amine], the IC50 in experiment [1] (values given in μM, read-out: EGFR kinase inhibition IC50) was > 20 µM. Besides, the inhibition at 20 µM in experiment [2] (read-out: Assay 2 (KRAS-Activation by SOS high GTP) activity expressed as % inhibition at 20 μM, high GTP, at 20 μM) was 27%.
Turning to `CC(=O)NCCNc1ccc2nc(C)nc(NC(C)c3ccc(-c4ccccc4CN(C)C)s3)c2c1` (stereo not drawn) [Example 427, N-{2-[(4-{[1-(5-{2-[(dimethylamino)methyl]phenyl}thiophen-2-yl)ethyl]amino}-2-methylquinazolin-6-yl)amino]ethyl}acetamide], the negative-log IC50 (pIC50) in experiment [1] (read-out: EGFR-assay IC50) is < 4.70; in experiment [2], 7.30.
